Assay results from patent US10221271B2, “Polymer/copper combination for targeted cancer therapy” (University of South Carolina, priority 2014, dated 2019).

Legend:
[1] = tested on: intracellular GSH in NCI/ADR-Res, UMSCC 22A, and SKOV-3 cells; assay: GSH-Glo Glutathione Assay, intracellular GSH level; type: cell-based; details: BSO 1 mM, 8 h
Procedure: (§1) It has been reported that GSH levels in tumor tissues, such as ovarian, head and neck, breast, and lung cancer are higher than that in normal tissues. To probe whether the high GSH level is also prevail in cancer cells in vitro, GSH-Glo™ Glutathione Assay was employed. Briefly, tumor and normal cells were seeded in 96-well white plate (5,000 cells/well) overnight prior to the study. BSO (1 mM) or GSH-MME (5 mM) in culture medium was added. For control group, only fresh culture medium was added. Cells were incubated for 8 h, and the intracellular GSH concentration was measured by GSH-Glo™ Glutathione Assay according to the manufacturer's instruction.
(§2) Accordingly, glutathione-monomethylester (GSH-MME, 5 mM) and buthionine sulfoxamine (BSO, 1 mM) were employed to boost or deplete the intracellular GSH level in normal cells (NIH 3T3, BNL CL.2, KC, and MCF 10A) or cancer cells (NCI/ADR-Res, HCT 116, UMSCC 22A, SKOV-3, and MDA-MB-231), respectively.

SKOV-3 cells [2] = assay: Cell cycle analysis by flow cytometry; type: cell-based; details: 41.58 μM, 12 h, FIG. 14
Procedure: FIG. 14 presents cell cycle analysis of SKOV-3 cells after treated with 41.58 μM of PDA-PEG/Cu2+ for 12 h. Flow cytometry spectra (A) and quantitive analysis (B) of cell cycle. Data represent the means±SD, n=3. *p<0.01.
CDKN1C is an inhibitor for G1 cyclin/Cdk complexes and causes cell arrest in G1 phase. To investigate the effect of CDKN1C up-regulation after PDA-PEG/Cu^2+treatment, cell cycle analysis was employed.

SKOV-3 cells [3] = assay: Cellular uptake of Cy5 labeled nanoparticles, flow cytometry and confocal microscopy; type: cell-based; details: DTNB binds exofacial free thiol groups
Procedure: FIG. 9 presents […] spectra of SKOV-3 (left) and NIH 3T3 (right) cells. Cellular uptake assays were carried out 1 h after the addition of nanoparticles. Scale bars were 20 μm.
FIG. 10 presents the flow cytometry spectra of SKOV-3 (left) and NIH 3T3 (right) cells treated with Cy5 labeled PDA-PEG nanoparticles. Cellular uptake assays were carried out 1 h after the addition of nanoparticles.
PDA-PEG was modified by Cy5 for cellular uptake study. Briefly, cysteamine (0.11 mg, 5% PDA function group) in 500 μL DMSO was added dropwise into 20 mg PDA-PEG in 500 μL DSMO and the reaction mixture was kept at room temperature overnight. After overnight reaction, Cy5-NHS ester (0.39 mg in 390 μL DMSO) was added and the mixture was kept for reacting overnight, following a thoroughly dialysis towards DMSO to remove free Cy5. The concentration of Cy5 in the final product was measured by a microplate reader (SpectraMax® M5. Molecular Devices Inc) at λex640 and λem680.
To probe the mechanism for PDA-PEG/Cu^2+ selectively killing cancer cells, the cellular uptake of PDA-PEG and PDA-PEG/Cu^2+ nanoparticle was investigated with flow cytometry and confocal microscopy. […] Therefore, the uptake of PDA-PEG/Cu^2+ wasn't the reason for its cancer-cell-selectivity. 5,5′-Dithio-bis-(2-nitrobenzoic acid) (DTNB) is a compound binds the free thiol groups on the surface of cell membrane. […]

[4] = tested on: intracellular GSH in normal cells (NIH 3T3, BNL CL.2, KC, and MCF 10A); details: GSH-MME 5 mM, 8 h
Procedure: as §1, §2

In the case of `CCCCS(=N)(=O)CCC(N)C(=O)O` (stereo not shown) [BSO, Buthionine sulfoximine], the “intracellular GSH level” value [1] is reported as “declined GSH level”.
In the case of `[Cl][Cu][Cl]` [Cu^2+ ion, CuCl2], the “effect on cell cycle distribution” value (SKOV-3 cells [2]) is reported as “did not show any effect”.
With `O=C(O)c1cc(SSc2ccc([N+](=O)[O-])c(C(=O)O)c2)ccc1[N+](=O)[O-]` [DTNB, 5,5′-Dithio-bis-(2-nitrobenzoic acid)] the “effect on cellular uptake of PDA-PEG” value (SKOV-3 cells [3]) was “significantly inhibited”.
For `COC(=O)CNC(=O)[C@H](CS)NC(=O)CC[C@H](N)C(=O)O` [GSH-MME, Glutathione monomethylester], the “intracellular GSH level” value [4] was “higher intracellular GSH level”.
